Tests used:
[1] = tested on: primary hippocampal/cortical cultures; assay: Cell death in mature primary neuronal cultures; format: cell-based, rat
[2] = target: T1, sigma-2/PGRMC1 receptors in human brain (Homo sapiens, UniProt Q5BJF2); assay: Quantitative autoradiography, radioligand displacement from human frontal cortex sections; settings: serial sections of unfixed frozen cognitively normal elderly human frontal cortex; 10-10,000 nM compound; N = 4; read-out: Ki at the [125I]RHM-1 binding site, human frontal cortex
T1 construct: serial sections of unfixed frozen cognitively normal elderly human frontal cortex; from tissue; host or cells: human frontal cortex, unfixed frozen sections
T1 sequence (Q5BJF2 whole entry): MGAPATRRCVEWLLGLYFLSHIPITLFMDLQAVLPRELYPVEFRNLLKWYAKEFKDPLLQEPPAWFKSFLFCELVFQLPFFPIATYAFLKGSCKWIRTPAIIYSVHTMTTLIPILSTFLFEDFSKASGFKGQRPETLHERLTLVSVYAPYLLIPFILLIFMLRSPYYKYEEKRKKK
Protocol: Quantitative autoradiography studies on frozen unfixed serial tissue sections from normal (N = 4) or Alzheimer's disease (N = 4) postmortem patients' neocortex were conducted and quantified according to previously published procedures [40]. [^3H](+) pentazocine was used as the radioligand for sigma-1 receptors and [^125I]RHM-1 (American Radiolabelled Chemicals, Inc.) or [^3H]DTG (1,3-Di-(2-tolyl)guanidine (Perkin Elmer) in the presence of 1 µM (+) pentazocine for sigma-2 receptors [32]. Human brain samples for these studies were obtained with written consent as previously published [40].

[3] = target: T2, sigma-2/PGRMC1 receptor (Homo sapiens, UniProt Q5BJF2); assay: Sigma-2 radioligand binding ([3H]DTG competition, Jurkat cell membranes; Cerep 0148); settings: homogenates of a human T cell line; mean ± S.E.M.; read-out: Ki, displacement of selective radioligand [3H]-DTG from sigma-2/PGRMC1 receptor
T2 construct: host or cells: Jurkat cell membranes
T2 sequence (Q5BJF2 whole entry): as above
Protocol: Radioligand competition assays were performed in membranes from Jurkat cells using 5 nM [^3H]1,3-di(2-tolyl) guanidine in the presence of 1 µM (+)-pentazocine with 10 µM haloperidol to define non-specific binding.

[4] = tested on: synapses; set-up: method as in PMID 25390368; settings: cited from earlier work
[5] = target: T3, Sigma-1 (Homo sapiens, UniProt Q99720); assay: Cerep panel: Sigma-1 radioligand binding; settings: Cerep 0889
T3 construct: purchased Cerep/Eurofins, Inc. 0889
T3 sequence (Q99720 whole entry): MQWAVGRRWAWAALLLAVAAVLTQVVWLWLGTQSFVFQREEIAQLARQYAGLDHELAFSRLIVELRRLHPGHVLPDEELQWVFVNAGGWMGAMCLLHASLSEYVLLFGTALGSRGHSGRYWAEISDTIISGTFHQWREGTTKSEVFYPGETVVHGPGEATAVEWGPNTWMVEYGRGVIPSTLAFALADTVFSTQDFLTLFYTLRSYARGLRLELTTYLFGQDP
Protocol: (§1) Active CogRx molecules were counterscreened for activity at 100 central nervous system receptors and enzymes (including those involved in neurotransmission and synaptic plasticity) in industry-standard assays measuring radioligand binding displacement and signaling activity (assays performed at Cerep/Eurofins, Inc., Table S1). […] To determine if these compounds were capable of displacing binding to sigma-2/PGRMC1 receptors in human brain, CT0093 and CT0109 were added in increasing concentrations to serial sections of unfixed frozen cognitively normal elderly human frontal cortex in the presence of a specific radioligand for sigma-2/PGRMC1, ^125I-RHM-4 [31] ( Fig. 1 B–D ).

[6] = tested on: caspase-3/7; assay: Caspase-3/7 activation in primary hippocampal/cortical cultures; format: cell-based, rat; settings: for activation of caspase-3/7: primary hippocampal/cortical cultures
Protocol: (§2) Little is known about the functional pharmacology of ligands for the sigma-2/PGRMC1 receptor. […] Finally, we treated hippocampal and cortical cultures with ascending concentrations of SV119 to induce caspase activation, in the presence of 40 µM of each of the sigma-2/PGRMC1 antagonists CT0109, CT0093 and RHM-1 ( Fig. 8E ).

[7] = target: Na^+ Channel (site2); assay: Cerep panel: Na+ Channel (site2) radioligand binding; settings: Cerep 0169
Protocol: as §1

[8] = tested on: caspase-3/7; assay: SV119-induced caspase-3/7 activation in hippocampal and cortical cultures, co-treatment with antagonists; format: cell-based, rat; settings: for block of the activation of caspase-3/7 by SV119: 40 µM antagonist, ascending concentrations of SV119, hippocampal and cortical cultures
Protocol: as §2

[9] = tested on: mixed cultures of hippocampal plus cortical neurons and glia; set-up: method as in PMID 25390368; settings: cited from earlier work
[10] = tested on: mouse models of Alzheimer's disease; set-up: method as in PMID 25390368; settings: cited from earlier work
[11] = tested on: caspase-3/7; assay: Caspase-3/7 activation in SKOV-3 tumor cell line; format: cell-based, human
[12] = target: T4, mu opioid (Homo sapiens, UniProt P35372); assay: Cerep panel: mu opioid radioligand binding; settings: Cerep 0118
T4 construct: purchased Cerep/Eurofins, Inc. 0118
T4 sequence (P35372 whole entry): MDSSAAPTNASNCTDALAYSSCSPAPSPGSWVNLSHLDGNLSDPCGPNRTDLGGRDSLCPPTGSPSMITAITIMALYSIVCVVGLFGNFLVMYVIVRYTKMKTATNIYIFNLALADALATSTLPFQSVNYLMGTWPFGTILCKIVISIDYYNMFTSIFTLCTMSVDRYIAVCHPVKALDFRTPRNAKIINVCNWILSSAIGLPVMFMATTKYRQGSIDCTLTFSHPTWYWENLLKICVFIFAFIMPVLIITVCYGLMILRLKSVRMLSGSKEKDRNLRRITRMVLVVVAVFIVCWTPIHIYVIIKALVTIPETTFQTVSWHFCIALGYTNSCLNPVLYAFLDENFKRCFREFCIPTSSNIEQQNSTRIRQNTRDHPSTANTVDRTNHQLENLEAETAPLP
Protocol: as §1

[13] = tested on: SKOV-3 human ovarian cancer cells; assay: Cell death in SKOV-3 human ovarian cancer cells; format: cell-based
[14] = target: T5, Dopamine 3 (Homo sapiens, UniProt P35462); assay: Cerep panel: Dopamine 3 agonist activity; format: cell-based; settings: Cerep 0683
T5 construct: purchased Cerep/Eurofins, Inc
T5 sequence (P35462 whole entry): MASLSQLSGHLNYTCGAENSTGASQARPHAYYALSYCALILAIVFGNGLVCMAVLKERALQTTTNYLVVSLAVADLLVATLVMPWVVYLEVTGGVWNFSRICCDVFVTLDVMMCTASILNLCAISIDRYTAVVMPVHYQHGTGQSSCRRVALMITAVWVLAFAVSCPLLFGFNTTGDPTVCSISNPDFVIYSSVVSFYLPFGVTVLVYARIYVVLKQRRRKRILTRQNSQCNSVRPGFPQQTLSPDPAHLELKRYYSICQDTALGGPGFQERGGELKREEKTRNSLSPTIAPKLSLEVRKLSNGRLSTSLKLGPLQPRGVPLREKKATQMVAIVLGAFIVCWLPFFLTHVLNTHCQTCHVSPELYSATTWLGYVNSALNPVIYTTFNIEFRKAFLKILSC
Protocol: as §1

[15] = target: hippocampal and cortical neurons; assay: Abeta binding assay (Abeta oligomer binding to synaptic puncta of cultured neurons); format: cell-based, rat
Protocol: To assess the ability of test compounds to prevent the binding of Abeta oligomers, cultures were treated with compounds for 30 minutes, followed by synthetic Abeta 1–42 oligomer preparation treatment for 60 min (total Abeta concentration 0.5 µM, equivalent to Kd concentration). Alternatively, displacement of prebound oligomers was evaluated by adding oligomers 60 min prior to the addition of compounds, followed by additional 30 minutes incubation. […]
Neuronal cultures were treated with either a mixture of 4 siRNAs targeted against PGRMC1 (GUCUAGGUCUUGGAUAAUA, GGUUUUACCUCAAAUCAGA, UUAGAAUGCAUGAUGUGUU, CUUCUAUCUGUAGUUAAAA, catalog number A-095365-00-0050) or a non-targeting sequence (UGGUUUACAUGUUUUCCUA, catalog number D-001910-03-50, Accell, ThermoFisher). siRNA were resuspended to 100 µM in RNase free water, shaken for 1.5 hours at 37°C, diluted in media and applied to cells at 1 or 2 uM for 48 hours prior to addition of Abeta oligomers for 30 minutes. Cultures were then fixed and co-immunolabeled with 6E10 antibody to detect Abeta and antibody to detect PGRMC1 as described above and analyzed via automated image processing as described above. For PGRMC1 measurements, total intensity in cell bodies was measured. […]

[16] = tested on: sigma-2/PGRMC1; assay: Immunofluorescent sigma-2/PGRMC1 expression in neuronal cultures; format: cell-based, rat; settings: for increase of total intensity of sigma-2/PGRMC1 expression in the cell body: 400 nM Abeta oligomers, pooled neurons and glia, vs vehicle
Protocol: To assess the ability of test compounds to prevent the binding of Abeta oligomers, cultures were treated with compounds for 30 minutes, followed by synthetic Abeta 1–42 oligomer preparation treatment for 60 min (total Abeta concentration 0.5 µM, equivalent to Kd concentration). Alternatively, displacement of prebound oligomers was evaluated by adding oligomers 60 min prior to the addition of compounds, followed by additional 30 minutes incubation. Cells were fixed with 3.75% formaldehyde for 15 min, blocked with 5% normal goat serum and 0.5% Triton X-100 and incubated with primary antibodies for Abeta (1 µg/ml 6E10 or 4G8, Covance catalog numbers SIG-39320 and SIG-39330, respectively), MAP-2 (0.2 µg/ml Chemicon), Synaptophysin-1 (1 µg/ml, Anaspec), glial fibrillary acidic protein (GFAP, 1 µg/ml, Thermo-Fisher) and fluorescently labeled secondary antibodies (2 µg/ml, Invitrogen). Images were acquired on a Cellomics VTi automated microscope with a 20X, 0.75 NA objective and analyzed using ThermoFisher/Cellomics Neuronal Profiling bioapplication set to measure punctate labeling of Abeta and synaptophysin-1 along MAP-2 labeled neurites. For each replicate experiment, at least 100 neurons were sampled from 4 replicate wells for each experimental condition (400 to 500 neurons per experimental condition). […]
Neuronal cultures were treated with either a mixture of 4 siRNAs targeted against PGRMC1 (GUCUAGGUCUUGGAUAAUA, GGUUUUACCUCAAAUCAGA, UUAGAAUGCAUGAUGUGUU, CUUCUAUCUGUAGUUAAAA, catalog number A-095365-00-0050) or a non-targeting sequence (UGGUUUACAUGUUUUCCUA, catalog number D-001910-03-50, Accell, ThermoFisher). siRNA were resuspended to 100 µM in RNase free water, shaken for 1.5 hours at 37°C, diluted in media and applied to cells at 1 or 2 uM for 48 hours prior to addition of Abeta oligomers for 30 minutes. Cultures were then fixed and co-immunolabeled with 6E10 antibody to detect Abeta and antibody to detect PGRMC1 as described above and analyzed via automated image processing as described above. For PGRMC1 measurements, total intensity in cell bodies was measured.

Compound | concentrations at which cell viability is affected [1] [µM] | activation of caspase-3/7 [6] | block of the activation of caspase-3/7 by SV119 [8] | activation of caspase-3/7 [11] | concentrations at which cell viability is affected [13] [µM] | dose-dependent cell death [1] | dose-dependent cell death [13] | also measured
COc1cc(CCC(C)NCc2ccc(C(F)(F)F)cc2)ccc1O (centres unmarked) [CT0109] | > 100 | did not | significantly blocked the activation of caspase-3/7 by SV119 | did not | > 100 | – | – | Ki [2]: 57 ± 23 nM; Ki [3]: 9 ± 7 nM; restoration of synapses [4]: restore synapses to normal; Ki [5]: 500 nM; Ki [7]: 2000 nM; reversal of Abeta oligomer-mediated trafficking deficits [9]: reverse Abeta oligomer-mediated trafficking deficits; restoration of cognitive function [10]: restore cognitive function; Ki [12]: 1700 nM; EC50 [14]: 4100 nM
COc1ccc(C)cc1NC(=O)OC1C[C@H]2CCC[C@@H](C1)N2CCCCCCN (some centres unmarked) [SV-119] | – | – | – | – | – | caused dose-dependent cell death | caused dose-dependent cell death | activation of caspase 3/7 ([8]; 20 to 80 µM for 24 hours, hippocampal and cortical cells, p<0.05 vs control): induced the activation of caspase 3/7
COc1cc2c(cc1OC)CN(CCCCNC(=O)c1cc(C)ccc1OC)CC2 [RHM-1] | > 100 | did not | did not | did not | > 100 | – | – | –
Abeta oligomers: synthetic Abeta 1–42 oligomer preparation | – | – | – | – | – | – | – | oligomer-induced caspase activation ([6]; 21 DIV primary hippocampal and cortical neuronal cultures, 3–48 hours, up to 28 uM): unable to detect oligomer-induced caspase activation; Kd ([15]; specific and saturable binding, read-out: Kd, binding to a single receptor site on neuronal synaptic puncta): 518 ± 41 nM; increase of total intensity of sigma-2/PGRMC1 expression in the cell body ([16]; 24 hours): 13%; increase of total intensity of sigma-2/PGRMC1 expression in the cell body ([16]; 48 hours): 28%
Non-targeting siRNA: non-targeting sequence UGGUUUACAUGUUUUCCUA, catalog number D-001910-03-50 (further chemistry not given here) [reference compound] | – | – | – | – | – | – | – | reduction in Abeta oligomer binding ([15]; siRNA 1 or 2 µM, 48 hours, then Abeta oligomers 30 minutes, vs untreated cultures): has no effect; reduction in immunocytochemically detectable sigma-2/PGRMC1 protein in neuronal cell body and synaptic puncta ([16]; siRNA 1 or 2 µM, 48 hours, vs untreated cultures): has no effect
Fc1ccc(-n2cc(CCCCN3CCC4(CC3)OCc3ccccc34)c3ccccc32)cc1 [siramesine] | – | activated caspase-3/7 | – | activated caspase-3/7 | – | caused dose-dependent cell death | caused dose-dependent cell death | –
